Data taken from US9657013B2, “Inhibitors of hepatitis B virus covalently closed circular DNA formation and their method of use” (priority 2012, dated 2017).

Assays:
Format in all cases: cell-based, hepatitis B virus
HBV cccDNA = experiment: cccDNA inhibition assay (Southern blot of Hirt DNA); conditions: for levels of HBV cccDNA and DP-rcDNA in cell cultures / EC50: HepDES19 cells; for levels of HBV cccDNA and DP-rcDNA in cell cultures: day 12, figure legend; for EC50: 288 h, harvested at day 12, read-out: EC50 of reduction of cccDNA
Description: Cell cultures: HepG2.2.15 cells were maintained in DMEM/F12 medium (Mediatech, Manassas, Va.) supplemented with 10% fetal bovine serum, 100 U/ml penicillin and 100 μg/ml streptomycin, plus 400 μg/ml G418. Tetracycline inducible HBV producer cells, specifically HepDE19 and HepDES19 cells, were maintained in the same way as HepG2.2.15, but with the addition of 1 μg/ml tetracycline (Guo, H., D. Jiang, T. Zhou, A. Cuconati, T. M. Block, and J. T. Guo. 2007). To initiate HBV replication and cccDNA formation in HepDE19 and HepDES19 cells, tetracycline was withdrawn from the culture medium and the cells were cultured for the indicated time period.
Viral nucleic acid analysis: Total cellular RNA was extracted with TRIzol reagent (Invitrogen, Grand Island, N.Y.) by following manufacturer's directions. Ten microgram of total cellular RNA was resolved in 1.5% agarose gel containing 2.2 M formaldehyde and transferred onto Hybond-XL membrane (GE Healthcare, Piscataway, N.J.) in 20×SSC buffer. Intracellular hepadnaviral core DNA and cccDNA (Hirt DNA) were extracted as described previously (Guo, H., D. Jiang, T. Zhou, A. Cuconati, T. M. Block, and J. T. Guo. 2007. Guo, H., D. Jiang, T. Zhou, A. Cuconati, T. M. Block, and J. T. Guo. 2007. Guo, H., R. Mao, T. M. Block, and J. T. Guo. 2010. Guo, H., W. S. Mason, C. E. Aldrich, J. R. Saputelli, D. S. Miller, A. R. Jilbert, and J. E. Newbold. 2005). Half of the DNA samples recovered from one well of a 6-well-plate were resolved by electrophoresis into a 1.2% agarose gel and blotted onto Hybond-XL membrane. Membranes were probed with either an α-^32P-UTP (800 Ci/mmol, Perkin Elmer) labeled hepadnaviral minus (detecting DNA) or plus strand (detecting RNA) specific full-length riboprobe and exposed to a phosphorimager screen (Fuji Film, Tokyo, Japan). Hybridization signals were visualized by Typhoon FLA-7000 (GE Healthcare) and quantified with ImageQuantTL software (GE Healthcare). […]
(§1) Identification of compounds that inhibits cccDNA accumulation in HepDES19 cells: Compounds were tested on HepDES19 cells, which have a higher level of cccDNA production than HepDE19 cells (Guo, H., D. Jiang, T. Zhou, A. Cuconati, T. M. Block, and J. T. Guo. 2007). Briefly, after withdrawal of tetracycline, HepDES19 cells were left untreated, or were treated with compound at serial concentrations; tetracycline-free media was changed every other day with fresh compound supplementation. The concentration of DMSO in all experimental groups was normalized at 0.1%. The cells were harvested at day 12, viral RNA (top panel), core DNA (middle panel), and Hirt DNA (DP-rcDNA and cccDNA) (bottom panels) were extracted and analyzed by Northern blot and Southern blot, respectively. Shorter exposure of the Hirt DNA blot was used for the quantitative determination of DP-rcDNA signals. […] The reduction between DP-rcDNA and cccDNA was proportional compared with untreated control. […] Liu, C. P. Hu, and C. Chang. 2005. Guo, H., T. Zhou, D. Jiang, A. Cuconati, G. H. Xiao, T. M. Block, and J. T. Guo. 2007. Zhou, T., H. Guo, J. T. Guo, A. Cuconati, A. Mehta, and T. M. Block. 2006).

HBV DP-rcDNA = experiment: DP-rcDNA level in HepDES19 cells (Southern blot); conditions: for reduction of DP-rcDNA: early time point
Source text: (§2) Viral nucleic acid analysis: Total cellular RNA was extracted with TRIzol reagent (Invitrogen, Grand Island, N.Y.) by following manufacturer's directions. Ten microgram of total cellular RNA was resolved in 1.5% agarose gel containing 2.2 M formaldehyde and transferred onto Hybond-XL membrane (GE Healthcare, Piscataway, N.J.) in 20×SSC buffer. Intracellular hepadnaviral core DNA and cccDNA (Hirt DNA) were extracted as described previously (Guo, H., D. Jiang, T. Zhou, A. Cuconati, T. M. Block, and J. T. Guo. 2007. Guo, H., D. Jiang, T. Zhou, A. Cuconati, T. M. Block, and J. T. Guo. 2007. Guo, H., R. Mao, T. M. Block, and J. T. Guo. 2010. Guo, H., W. S. Mason, C. E. Aldrich, J. R. Saputelli, D. S. Miller, A. R. Jilbert, and J. E. Newbold. 2005). Half of the DNA samples recovered from one well of a 6-well-plate were resolved by electrophoresis into a 1.2% agarose gel and blotted onto Hybond-XL membrane. Membranes were probed with either an α-^32P-UTP (800 Ci/mmol, Perkin Elmer) labeled hepadnaviral minus (detecting DNA) or plus strand (detecting RNA) specific full-length riboprobe and exposed to a phosphorimager screen (Fuji Film, Tokyo, Japan). Hybridization signals were visualized by Typhoon FLA-7000 (GE Healthcare) and quantified with ImageQuantTL software (GE Healthcare).
Identification of compounds that inhibits cccDNA accumulation in HepDES19 cells: Compounds were tested on HepDES19 cells, which have a higher level of cccDNA production than HepDE19 cells (Guo, H., D. Jiang, T. Zhou, A. Cuconati, T. M. Block, and J. T. Guo. 2007). Briefly, after withdrawal of tetracycline, HepDES19 cells were left untreated, or were treated with compound at serial concentrations; tetracycline-free media was changed every other day with fresh compound supplementation. […] The cells were harvested at day 12, viral RNA (top panel), core DNA (middle panel), and Hirt DNA (DP-rcDNA and cccDNA) (bottom panels) were extracted and analyzed by Northern blot and Southern blot, respectively. Shorter exposure of the Hirt DNA blot was used for the quantitative determination of DP-rcDNA signals. […]

HBV RNA and core DNA = experiment: viral RNA and core DNA in HepDES19 cells (Northern/Southern blot); conditions: for reduction of viral RNA and DNA replicative intermediates: day 12, high concentrations; for steady state levels of HBV RNA and core DNA: early time point (day 4) of treatment
Source text: as §2
as §1, with “The cells were harvested at day 12, viral RNA (top panel), core DNA (middle panel), and Hirt DNA (DP-rcDNA and cccDNA) (bottom panels) were extracted and analyzed by Northern blot and Southern blot, respectively.” left out

HBV Dp-rcDNA and cccDNA = experiment: stability of HBV DP-rcDNA and cccDNA

SMILES	levels of HBV cccDNA and DP-rcDNA in cell cultures (HBV cccDNA)	EC50 (HBV cccDNA; Hepatitis B virus) [µM]	inhibition at 0.3 µM (HBV cccDNA; Hepatitis B virus, Concentration 0.3 μM, read-out: cccDNA inhibition % Reduction) [%]	inhibition at 1 µM (HBV cccDNA; Hepatitis B virus, Concentration 1 μM, read-out: cccDNA inhibition % Reduction) [%]	inhibition at 3 µM (HBV cccDNA; Hepatitis B virus, Concentration 3 μM, read-out: cccDNA inhibition % Reduction) [%]	reduction of DP-rcDNA (HBV DP-rcDNA)	reduction of viral RNA and DNA replicative intermediates (HBV RNA and core DNA)	steady state levels of HBV RNA and core DNA (HBV RNA and core DNA)	stability of HBV Dp-rcDNA and cccDNA (HBV Dp-rcDNA and cccDNA)	cccDNA inhibition % Reduction (HBV cccDNA; Concentration 1 μM, 1 µM) [%]	cccDNA inhibition % Reduction (HBV cccDNA; Concentration 3 μM, 3 µM) [%]	cccDNA inhibition % Reduction (HBV cccDNA; Concentration 10 μM, 10 µM) [%]	reduction of putative cccDNA precursor DP-rcDNA (HBV DP-rcDNA; HepDES19 cells, day 12)
Cc1nc2cc(NC(=O)c3ccc(S(=O)(=O)N(C)Cc4ccccc4)cc3)ccc2s1 [CCC-0346, 4-(Benzyl-methyl-sulfamoyl)-N-(2-methyl-benzothiazol-5-yl)-benzamide]	reduces	3	20	30	60	significant reduction	slight reduction	did not reduce	did not alter				
O=C(CN(c1cc(C(F)(F)F)ccc1Cl)S(=O)(=O)c1ccccc1)NCc1ccncc1 [CCC-0975, 2-[Benzenesulfonyl-(2-chloro-5-trifluoromethyl-phenyl)-amino]-N-pyridin-4-ylmethyl-acetamide]	reduces	10				significant reduction	slight reduction	did not reduce	did not alter	10	20	70	significant reduction
